Measured values published in ChEMBL document CHEMBL3585332, “Antimalarial Isocyano and Isothiocyanato Sesquiterpenes with Tri- and Bicyclic Skeletons from the Nudibranch Phyllidia ocellata” (J Nat Prod, 2015).
pIC50: −log10 of the molar value.

Assays:
[1] = test system: Plasmodium falciparum; test: Antimalarial activity against chloroquine-sensitive asynchronous Plasmodium falciparum 3D7 infected in erythrocytes assessed as parasite growth inhibition after 48 hrs by [3H]-hypoxanthine incorporation assay; assay type: functional, organism-based
[2] = test system: Plasmodium falciparum; test: Antimalarial activity against drug-resistant asynchronous Plasmodium falciparum Dd2 infected in erythrocytes assessed as parasite growth inhibition at 10 uM after 48 hrs by [3H]-hypoxanthine incorporation assay relative to control; assay type: functional; conditions: read-out: GI
[3] = test system: Plasmodium falciparum; test: Antimalarial activity against drug-resistant asynchronous Plasmodium falciparum Dd2 infected in erythrocytes assessed as parasite growth inhibition after 48 hrs by [3H]-hypoxanthine incorporation assay; assay type: functional, organism-based
[4] = Selectivity ratio of IC50 for human NFF to IC50 for drug-resistant asynchronous Plasmodium falciparum Dd2
[5] = Selectivity ratio of IC50 for human NFF to IC50 for chloroquine-sensitive asynchronous Plasmodium falciparum 3D7

| SMILES | pIC50 [1] | inhibition of growth at 10 µM [2] [%] | pIC50 [3] | Ratio IC50 [4] | Ratio IC50 [5] |
| --- | --- | --- | --- | --- | --- |
| CC1(C)C[C@@H]2[C@H]1CC[C@@]1(C)CCC[C@]2(N=C=S)C1 | < 5.00 | < 50 |  |  |  |
| [C-]#[N+][C@@H]1CCC(C)=C[C@@H]2[C@@H](C(C)C)CC[C@]21C | 6.59 | 98.3 | 6.06 | 45 | 45 |
| [C-]#[N+][C@@H]1[C@H]2C(=C)CCC[C@]2(C)CC[C@H]1C(C)C |  | 98.3 |  |  |  |
| [C-]#[N+][C@]1(C)[C@H](C)C[C@@H]2C[C@H](C)[C@H]3CC[C@](C)([N+]#[C-])[C@H]4CC[C@H]1[C@@H]2[C@H]34 [DIISOCYANOADOCIANE] |  | 98.3 |  |  |  |
| [C-]#[N+]C1=CC(C)(C)[C@@H]2CC[C@@]3(C)CCC[C@@]12C3 | 6.52 | 98.3 | 6.44 | 45 | 45 |
| [C-]#[N+][C@@H]1CC(C)(C)[C@@H]2CC[C@@]3(C)CCC[C@@]12C3 | 6.54 | 98.3 | 6.08 | 45 | 45 |
| CC1(C)C=C(NC=O)[C@]23CCC[C@](C)(CC[C@@H]12)C3 | < 5.00 | < 50 |  |  |  |
| [C-]#[N+][C@@H]1[C@H](C(C)C)CC[C@@H](C)[C@@]12C=C(C)CC2 [AXISONITRILE 3] |  | 98.3 |  |  |  |
